# Results from US8653127B2, “Bicyclic pyrazolo-heterocycles” (Cara Therapeutics, Inc., priority 2009, dated 2014).
# Read-outs that look alike come from different tables or passages of the source.
# What was measured:
# [1] = target: human CB1 receptor (hCB1) (Homo sapiens, UniProt P21554); test: cAMP assay, agonist/inverse agonist activity at human CB1 receptor; type: cell-based; details: hCB1R, read-out: EC50 at hCB1R (Potency at Human CB1 determined by cAMP Assay)
# Procedure: The ability of each of the compounds to act as agonists or inverse agonists at human CB2 and CB 1 receptors (hCB2, hCB 1, respectively) and at the rat CB2 receptor (rCB2) was determined by measuring changes in intracellular cyclic AMP (cAMP) levels as described in U.S. Pat. No. 7,517,874.
# TR-FRET was measured using a 330-380 nm excitation filter, 615 nm and 665 nm emission filters, dichroic mirror 380 nm and Z=10 mm. cAMP concentrations in each well were back-calculated from a cAMP standard curve run concurrently during each assay. Each plate contained 16 wells of forskolin stimulated cells and 16 wells of forskolin plus 1 μM CP55,940-treated cells. Concentrations of cAMP were expressed as a percent of the difference of these two groups of wells. Concentration-response data including EC50 (the concentration of compound producing 50% of the maximal response) and intrinsic activity (the percent maximal activation compared to full activation by CP55,940) were determined using a four-parameter non-linear regression algorithm (CambridgeSoft Bioassay).
# [2] = target: human CB2 receptor (hCB2) (Homo sapiens, UniProt P34972); test: cAMP assay, agonist/inverse agonist activity at human CB2 receptor; type: cell-based
# Chain of human CB2 receptor (hCB2) (P34972 whole entry): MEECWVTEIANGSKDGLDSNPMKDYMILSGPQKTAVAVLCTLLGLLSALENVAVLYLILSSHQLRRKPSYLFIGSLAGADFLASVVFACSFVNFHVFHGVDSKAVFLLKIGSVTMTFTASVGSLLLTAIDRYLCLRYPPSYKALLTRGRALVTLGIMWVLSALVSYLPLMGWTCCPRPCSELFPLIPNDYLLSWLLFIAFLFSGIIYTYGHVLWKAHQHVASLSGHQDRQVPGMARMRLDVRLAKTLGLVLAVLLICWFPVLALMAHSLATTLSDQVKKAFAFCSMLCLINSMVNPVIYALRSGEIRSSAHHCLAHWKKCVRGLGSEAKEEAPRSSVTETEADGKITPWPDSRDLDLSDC
# Procedure: TR-FRET was measured using a 330-380 nm excitation filter, 615 nm and 665 nm emission filters, dichroic mirror 380 nm and Z=10 mm. cAMP concentrations in each well were back-calculated from a cAMP standard curve run concurrently during each assay. Each plate contained 16 wells of forskolin stimulated cells and 16 wells of forskolin plus 1 μM CP55,940-treated cells. Concentrations of cAMP were expressed as a percent of the difference of these two groups of wells.
# [3] = system: Complete Freund's Adjuvant (CFA) model of inflammatory pain; test: Anti-hyperalgesia in CFA inflammatory pain model (paw withdrawal latency to thermal stimulus); type: in vivo, male Sprague-Dawley rats; details: PO dose 3 mg/kg, 1 hr after dosing (24 hr after CFA), rat, read-out: % MPE (1 hr), paw withdrawal latency after CFA injection
# Procedure: The anti-hyperalgesic effects of test compounds in the Complete Freund's Adjuvant (CFA) model of inflammatory pain were determined essentially as described in U.S. Pat. No. 7,517,874 using male Sprague-Dawley rats (Hsd: Sprague-Dawley®SD®, Harlan, Indianapolis, Ind.) weighing 200-300 grams.
# Test compounds were prepared in a Cremaphor vehicle mixture of 1:1:18 CremophorEL:ethanol:water. Cremophor was obtained from Sigma Chemical (St. Louis, Mo.). Vehicle mixture or vehicle mixture+test compound were each administered p.o.
# Assessment of thermal hyperalgesia: Baseline and post-treatment paw withdrawal latencies to a noxious thermal stimulus were measured using a plantar test apparatus (Ugo Basile; obtained from Stoelting, Wood Dale, Ill.). This apparatus generates an infrared heat source that is linearly increasing in intensity. To avoid tissue damage, the power to the heat source was cut off after 20 seconds.
# Paw withdrawal latency is defined as the time required for the rat to flick its paw away from the thermal stimulus. Ibuprofen (100 mg/kg, p.o.) was used as the positive control. Paw withdrawal latencies (in seconds) were measured before (naïve paw latency, L1) and 24 hr following (CFA-inflamed paw latency, L2) a single intraplantar injection of 0.1 mL CFA (Sigma-Aldrich, cat F5881, Mycobacterium tuberculosis 1 mg/ml).
# Test compounds were administered orally 23 hours following CFA injection; i.e., 1 hour prior to thermal assessment (compound treated CFA-inflamed paw latency, L3). The mean paw withdrawal latency and standard error of the mean (SEM) was determined for the injured paws for each treatment group.
# Data were expressed as percent maximum percent effect (% MPE) defined as the percentage of restoration of latency of test compound-treated CFA inflamed paw as compared to the naïve paw latency.
# Chain of human CB1 receptor (hCB1) (P21554 whole entry): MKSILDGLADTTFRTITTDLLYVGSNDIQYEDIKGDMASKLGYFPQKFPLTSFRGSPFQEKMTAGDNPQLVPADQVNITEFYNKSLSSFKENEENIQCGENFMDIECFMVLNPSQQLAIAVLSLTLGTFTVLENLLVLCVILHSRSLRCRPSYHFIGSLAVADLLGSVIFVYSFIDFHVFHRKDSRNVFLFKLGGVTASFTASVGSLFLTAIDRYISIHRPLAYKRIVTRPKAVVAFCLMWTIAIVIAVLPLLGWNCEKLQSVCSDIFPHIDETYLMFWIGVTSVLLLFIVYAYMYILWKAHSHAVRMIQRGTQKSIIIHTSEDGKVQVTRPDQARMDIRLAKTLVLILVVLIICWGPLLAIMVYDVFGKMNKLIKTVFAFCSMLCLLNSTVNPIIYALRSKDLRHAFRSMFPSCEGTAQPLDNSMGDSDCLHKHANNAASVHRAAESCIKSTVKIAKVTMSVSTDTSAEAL
Compound,EC50 [1],"EC50 ([2]; hCB2R, cAMP assay, read-out: EC50 at hCB2R (Potency at Human CB2 determined by cAMP Assay))",inhibition in vivo at 3 mg/kg [3],EC50 [2]
"CNC(=O)[C@@H](NC(=O)c1nn(-c2ccc(F)c(F)c2)c2c1COCC2)C(C)(C)C [Compound 114, (S)-1-(3,4-difluorophenyl)-N-(3,3-dimethyl-1-(methylamino)-1-oxobutan-2-yl)-1,4,6,7-tetrahydropyrano[4,3-c]pyrazole-3-carboxamide]",< 1000 nM,< 1000 nM,41%,–
"CC(C)(C)[C@H](NC(=O)c1nn(-c2ccc(F)c(F)c2)c2c1COCC2)C(=O)NCCO [Compound 115, (S)-1-(3,4-difluorophenyl)-N-(1-(2-hydroxyethylamino)-3,3-dimethyl-1-oxobutan-2-yl)-1,4,6,7-tetrahydropyrano[4,3-c]pyrazole-3-carboxamide]",< 1000 nM,–,35%,< 1000 nM
"CC(C)(C)[C@H](NC(=O)c1nn(-c2ccc(F)c(F)c2)c2c1CCOC2)C(=O)NCCO [Compound 116, (S)-1-(3,4-difluorophenyl)-N-(1-(2-hydroxyethylamino)-3,3-dimethyl-1-oxobutan-2-yl)-1,4,5,7-tetrahydropyrano[3,4-c]pyrazole-3-carboxamide]",< 1000 nM,–,60%,< 1000 nM
